Here are results for 2 molecules from patent publication US7790781B2 (priority 2005, dated 2010).

As a reminder, the solubility is the concentration that dissolves in the medium under given conditions. A word on the pKa: it is the negative logarithm of the acid dissociation constant. Read a low pKa as a group that gives up its proton readily.

Data set [1] in a line: Water solubility of acidic compound at 20° C. The text has this:
This object is achieved pursuant to the invention by a condensation-crosslinkable dental material having a composition containing at least one alkoxysilyl-functional and/or hydroxysilyl-functional polyether a), at least one catalyst b), and optionally water c), with the at least one catalyst b) being selected from the group consisting of bases, salts, and any combinations thereof.

Data set [2] is described as follows: Polyether solubility of acidic compound (20° C.). Conditions: organic solvent or mixture.
Data set [3] in a line: pKa of acidic compound in water. From the text: If polyfunctional acids are used, it is sufficient for at least one of the pKa values, preferably the pKa1 of the polyfunctional acid used, to lie within the aforementioned ranges.

For the molecule `Cc1ccc(S(=O)(=O)O)cc1` [p-toluenesulfonic acid], the Water solubility result in data set [1] is “about 750 g/l”.

In the case of `O=C1CC(=O)NC(=O)N1` [barbituric acid], the solubility in data set [2] was at most 2 mg/mL; in data set [1] (20 °C, water) it was 142 mg/mL. In data set [3], this molecule showed a pKa of 4.01.
